Measurements published in US20200281956A1, “ANTIBACTERIAL COMPOSITION CONTAINING A DEOXYHEXOSE ALKYL MONOACETAL OR MONOETHER” (TEREOS STARCH & SWEETENERS BELGIUM, priority 2015, published 2020).

Assays:
S. aureus [1] = settings: literature, in words; cited from earlier work
L. monocytogenes [2] = settings: literature, in words; cited from earlier work
L. monocytogenes [3] = assay: MIC on strains of Listeria (microplate dilution, CLSI); type: cell-based, Listeria monocytogenes
Excerpt: (§1) The strains tested are reference strains and cultures that are multi-antibiotic resistant; these are clinical strains that were isolated at the “Hospice de Lyon” and are as follows: • Staphylococcus S. aureus: ATCC® 29213™, ATCC 25923, • Methicillin-resistant S. aureus staphylococcus strains (Lac-Deleo USA 300), (MU 3), (HT 2004-0012), LY 199-0053, (HT 2002-0417), (HT 2006-1004), • Daptomycin-resistant S. aureus staphylococcus strains (ST 2015-0188) (ST 2014 1288), (ST 2015-0989). • Enterococci: E. faecalis (ATCC® 29212™, clinical strains of E. faecalis enterococcus, isolated from urine: strain 015206179901 (hereinafter 9901), strain 015205261801 (hereinafter 1801) • Enterococci: E. faecium (CIP 103510), clinical strains of E. faecium enterococcus: Van A 0151850763 (hereinafter Van A); strain 015 205731401 (hereinafter 1401), • Listeria: L. monocytogenes (CIP 103575), clinical strains isolated from blood culture (015189074801, LM1), strain isolated from cerebrospinal fluid (015170199001, LM2), clinical strain isolated from blood culture (015181840701, LM3).
(§2) The cultures studied, freshly isolated (after incubation on blood agar at 37° C. for 18 h), are taken up in sterile water (10 ml) until a 0.5 McFarland (Mc), i.e. 1 to 2×10^8 CFU (bacteria)/cm^3, suspension is obtained. The bacterial suspension was then diluted in order to obtain a final concentration of 1×10^6 CFU/cm^3.
(§3) Each well contains a final identical amount of Mueller-Hinton medium (rich medium enabling bacterial culture) and of bacteria of 0.5×10^6 CFU/cm^3.
The compounds of interest to be tested are dissolved in ethanol or DMSO at 25 mg/ml before being diluted, with the dilution being doubled each time, to different concentrations. On the multi-well plate, a first series was provided comprising the culture medium without the compound of interest to be tested. This corresponds to the growth control (control wells). These controls serve as a reference for comparing bacterial growth with those of the following wells comprising different concentrations of the compound of interest to be tested. The second series of wells comprises the parent solution of the compound of interest to be tested for a concentration in the well of 256 mg/l (7 mM). Each series of wells was diluted, with the dilution being doubled each time, until the last series for a final concentration of 0.25 mg/l (0.0007 mM). Each concentration is duplicated within the same plate. The plate is incubated for 18 h at 37° C. […]
(§4) The minimum inhibitory […] (MIC) are determined on Gram-positive bacterial strains according to the recommendations of the “Clinical Laboratory Standards Institute” (Clinical-Laboratory-Standards-Institute, 6th ed. Approved standard M100-S17. CLSI, Wayne, Pa., 2007). […]

E. faecalis = assay: MIC on E. faecalis enterococcal strains (microplate dilution, CLSI); type: cell-based, Enterococcus faecalis
Excerpt: as §1, §2, §3
(§5) The compounds of interest to be tested are dissolved in ethanol or DMSO at 25 mg/ml before being diluted, with the dilution being doubled each time, to different concentrations. […]
as §4

S. aureus [4] = assay: MIC on S. aureus staphylococcal strains (microplate dilution, CLSI); type: cell-based, Staphylococcus aureus
Excerpt: as §1, §2, §3
The compounds of interest to be tested are dissolved in ethanol or DMSO at 25 mg/ml before being diluted, with the dilution being doubled each time, to different concentrations. On the multi-well plate, a first series was provided comprising the culture medium without the compound of interest to be tested. This corresponds to the growth control (control wells). These controls serve as a reference for comparing bacterial growth with those of the following wells comprising different concentrations of the compound of interest to be tested. The second series of wells comprises the parent solution of the compound of interest to be tested for a concentration in the well of 256 mg/l (7 mM). Each series of wells was diluted, with the dilution being doubled each time, until the last series for a final concentration of 0.25 mg/l (0.0007 mM). Each concentration is duplicated within the same plate. The plate is incubated for 18 h at 37° C. […] In the case of antibacterial activity, bacterial growth is inhibited which is reflected by the absence of appearance of cloudiness or bacterial pellet.
The minimum inhibitory […] (MIC) are determined on Gram-positive bacterial strains according to the recommendations of the “Clinical Laboratory Standards Institute” (Clinical-Laboratory-Standards-Institute, 6th ed. Approved standard M100-S17. CLSI, Wayne, Pa., 2007).
as §2, with “i.e.” for “i.e. 1”, “10^8” for “2×10^8”, “10^6” for “1×10^6”

E. faecium = assay: MIC on E. faecium enterococcal strains (microplate dilution, CLSI); type: cell-based, Enterococcus faecium
Excerpt: as §1, §2, §3, §5, §4

esterases = settings: cited from earlier work

Dodecanoyl sucrose
inhibition of the growth of S. aureus (S. aureus [1]): weakly inhibiting the growth | activity against L. monocytogenes (L. monocytogenes [2]): particularly active

3-O-Dodecyl-1,4-D-sorbitan, 5-O-dodecyl-1,4-D-sorbitan and 6-O-dodecyl-1,4-D-sorbitan [reference compound]
Minimum inhibitory concentration (MIC) (L. monocytogenes [3]; L. monocytogenes CIP 103575): 32 µg/mL | Minimum inhibitory concentration (MIC) (L. monocytogenes [3]; L. monocytogenes clinical strain LM1 (blood culture)): 16 µg/mL | Minimum inhibitory concentration (MIC) (L. monocytogenes [3]; L. monocytogenes clinical strain LM2 (cerebrospinal fluid)): 32 µg/mL | Minimum inhibitory concentration (MIC) (L. monocytogenes [3]; L. monocytogenes clinical strain LM3 (blood culture)): 32 µg/mL | Minimum inhibitory concentration (MIC) (E. faecalis; E. faecalis ATCC 29212): 8 µg/mL | Minimum inhibitory concentration (MIC) (E. faecalis; E. faecalis clinical strain 1801 (urine)): 8 µg/mL | Minimum inhibitory concentration (MIC) (E. faecalis; E. faecalis clinical strain 9901 (urine)): 16 µg/mL | Minimum inhibitory concentration (MIC) (S. aureus [4]; S. aureus ATCC 25923, reference strain): 32 µg/mL | Minimum inhibitory concentration (MIC) (S. aureus [4]; S. aureus ATCC 29213, reference strain): 32 µg/mL | Minimum inhibitory concentration (MIC) (S. aureus [4]; daptomycin-resistant S. aureus ST 2014 1288): 64 µg/mL | Minimum inhibitory concentration (MIC) (S. aureus [4]; daptomycin-resistant S. aureus ST 2015-0188): 64 µg/mL | Minimum inhibitory concentration (MIC) (S. aureus [4]; daptomycin-resistant S. aureus ST 2015-0989): 256 µg/mL | Minimum inhibitory concentration (MIC) (S. aureus [4]; methicillin-resistant S. aureus HT 2002-0417): 32 µg/mL | Minimum inhibitory concentration (MIC) (S. aureus [4]; methicillin-resistant S. aureus HT 2004-0012): 32 µg/mL | Minimum inhibitory concentration (MIC) (S. aureus [4]; methicillin-resistant S. aureus HT 2006-1004): 32 µg/mL | Minimum inhibitory concentration (MIC) (S. aureus [4]; methicillin-resistant S. aureus LY 199-0053): 32 µg/mL | Minimum inhibitory concentration (MIC) (S. aureus [4]; methicillin-resistant S. aureus Lac-Deleo USA 300): 32 µg/mL | Minimum inhibitory concentration (MIC) (S. aureus [4]; methicillin-resistant S. aureus MU 3): 64 µg/mL | Minimum inhibitory concentration (MIC) (E. faecium; E. faecium CIP 103510): 16 µg/mL | Minimum inhibitory concentration (MIC) (E. faecium; E. faecium clinical strain 1401): 8 µg/mL | Minimum inhibitory concentration (MIC) (E. faecium; E. faecium clinical strain Van A): 16 µg/mL

CCCCCCCCCCCC1OCC2O[C@H](OC)C(O)C(O)[C@H]2O1 (stereo partly drawn) [compound 1d, Methyl 4,6-O-dodecylidene-α-D-galactopyranoside]
melting point: 115 °C

CCCCCCCCCCCC(=O)OCC(O)CO (stereo not shown) [monolaurin]
degradation / half-life (ester function sensitive to esterases) (esterases): quickly degraded
